Experimental data: ChEMBL document CHEMBL4138093, “Discovery and characterization of selective human sphingomyelin synthase 2 inhibitors” (Eur J Med Chem, 2017)

Experiments:
[1] = target: T1, Phosphatidylcholine:ceramide cholinephosphotransferase 2 (Homo sapiens, UniProt Q8NHU3); assay: Inhibition of full length C-terminal FLAG tagged human SMS2 expressed in HEK293 cell membranes using DMPC-d72 and C17-ceramide as substrate preincubated for 60 mins followed by substrate addition measured after 30 mins by RapidFire/mass spectrometry assay
T1 sequence (Q8NHU3 whole entry): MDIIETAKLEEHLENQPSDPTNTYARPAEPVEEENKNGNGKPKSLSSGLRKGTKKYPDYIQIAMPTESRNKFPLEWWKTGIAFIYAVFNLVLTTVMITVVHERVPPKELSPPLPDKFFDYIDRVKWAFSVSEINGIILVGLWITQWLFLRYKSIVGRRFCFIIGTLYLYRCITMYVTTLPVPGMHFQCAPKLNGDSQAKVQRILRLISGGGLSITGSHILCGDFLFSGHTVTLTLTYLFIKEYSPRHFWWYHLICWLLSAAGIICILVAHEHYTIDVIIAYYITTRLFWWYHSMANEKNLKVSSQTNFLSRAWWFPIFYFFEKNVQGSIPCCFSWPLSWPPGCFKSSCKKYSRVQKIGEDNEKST

[2] = target: T2, Phosphatidylcholine:ceramide cholinephosphotransferase 1 (Homo sapiens, UniProt Q86VZ5); assay: Inhibition of full length C-terminal FLAG tagged human SMS1 expressed in HEK293 cell membranes using DMPC-d72 and C17-ceramide as substrate preincubated for 60 mins followed by substrate addition measured after 30 mins by RapidFire/mass spectrometry assay
T2 sequence (Q86VZ5 whole entry): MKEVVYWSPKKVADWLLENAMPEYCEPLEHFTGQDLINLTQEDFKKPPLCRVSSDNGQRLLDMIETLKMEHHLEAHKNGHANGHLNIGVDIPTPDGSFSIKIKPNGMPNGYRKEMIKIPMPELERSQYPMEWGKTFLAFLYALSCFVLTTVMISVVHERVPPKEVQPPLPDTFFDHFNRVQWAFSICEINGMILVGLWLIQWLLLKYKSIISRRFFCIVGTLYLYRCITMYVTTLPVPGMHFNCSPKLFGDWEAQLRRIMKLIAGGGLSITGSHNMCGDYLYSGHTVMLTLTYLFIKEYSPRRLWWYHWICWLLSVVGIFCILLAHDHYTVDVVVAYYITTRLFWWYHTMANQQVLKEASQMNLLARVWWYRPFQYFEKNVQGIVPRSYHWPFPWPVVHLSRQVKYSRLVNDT

Homo sapiens = species: Homo sapiens; assay: Selectivity index, ratio of IC50 for full length C-terminal FLAG tagged human SMS1 to IC50 for full length C-terminal FLAG tagged human SMS2
HEK-293T = assay: Cytotoxicity against HEK293T cells by CellTiter-Glo luminescent cell viability assay relative to control; assay type: cell-based; conditions: human
[3] = target: T2, Phosphatidylcholine:ceramide cholinephosphotransferase 1; assay: Inhibition of human SMS1

Row | IC50 [1] | IC50 [2] | Ratio IC50 (Homo sapiens) | IC50 [3] | Compound | Activity (HEK-293T)
1 | 56 µM | 86 µM | 1.5 |  | S=C(S)OC1CC2CC1C1CCCC21 (stereo not given) | 
2 |  |  |  | > 100 µM | CN(Cc1cc(C(F)(F)F)cc(C(F)(F)F)c1)C(=O)c1c(N2CCCC2)c2ccccc2n(C)c1=O | > 50%
